Reference: publication PMC10674160, “Synthesis and Preclinical Evaluation of Radiolabeled [^103Ru]BOLD-100” (Pharmaceutics, 2023)

Key:
[1] = tested on: CT26 cells; experiment: MTT cytotoxicity assay, 96 h exposure; assay type: cell-based, murine; details: exposure time 96 h, mean ± SD
Experimental: (§1) The murine cancer cell line CT26 and the human cancer cell line HCT116 were both obtained from the American Type Culture Collection (ATCC). Both cell lines were grown as adherent monolayer cultures in 75 cm^2 culture flasks in RPMI 1640 medium (supplemented with 2 mM L-glutamine and 1% PenStrep, Gibco^TM) and 10% fetal bovine serum (FBS, Gibco^TM) at 37 °C under a humid atmosphere containing 5% CO2 and 95% air. For splitting, accutase® solution (Sigma Aldrich) was used.
(§2) Cell viability was determined by the colorimetric MTT assay. The cells were seeded in RPMI 1640 medium in a 96-well cell culture plate 24 h prior to treatment at a density of 1.5 × 10^3 (CT26) and 2 × 10^3 (HCT116) cells per well. A stock solution of compounds 3a and 3b was prepared in DMSO and then diluted with RPMI 1640 medium (maximum 0.5% v/v of DMSO per well). After serial dilutions, a 100 µL aliquot was added to each well ([…], 6.25, 3.13 µmol/L per well). […] Optical densities were measured at 490 nm with a Synergy^TM HTX Multi-Mode Reader (BioTek, Winooski, VT, USA), using a reference wavelength of 650 nm to correct for unspecific absorption. Concentration–effect curves were calculated relative to untreated controls. […]

[2] = tested on: HCT116 cells; experiment: MTT cytotoxicity assay, 96 h exposure; assay type: cell-based, human; details: exposure time 96 h, mean ± SD
Experimental: as §1, §2

Structure (SMILES) | IC50 [1] [µM] | IC50 [2] [µM]
[Cl][Ru-]([Cl])([Cl])[Cl].[Na+].c1ccc2[nH]ncc2c1.c1ccc2[nH]ncc2c1 [3a, sodium trans-[tetrachloridobis(indazole)ruthenate(III)]] | 188 ± 17.8 | 99.4 ± 14.5
[Cl][Ru]([Cl])([Cl])[Cl].[Na+].c1ccc2[nH]ncc2c1.c1ccc2[nH]ncc2c1 [3b, [^103Ru]sodium trans-[tetrachloridobis(indazole)ruthenate(III)]] | 173 ± 15.1 | 94.7 ± 11.7
